Reference: patent US8791264B2 (Purdue Pharma L.P., priority 2006, dated 2014)

What was measured:
[1] = molecular target: T1, N-type calcium channel (NTCC) (Homo sapiens, UniProt Q00975); assay: FLIPR calcium mobilization assay for N-type calcium channel; assay type: cell-based; conditions: calcium mobilization in vitro assay; differentiated IMR32 cells
T1 construct: host or cells: IMR32 cells differentiated with dibutyryl cAMP and bromodeoxyuridine
Method in brief: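 Differentiated IMR32 cells (8 days, dibutyryl cAMP and BrdU) loaded with 3 μM Fluo-4 during 90 mM KCl pre-stimulation, with compound at about 846 pM to 17 μM plus 5 μM nitrendipine. After washes in compound, FLIPR read basal fluorescence 315 s, then 45 s after KCl addition (final 90 mM).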

[2] = molecular target: T2, recombinant rat L-type calcium channel (LTCC) subunits (α1c, α2δ, and β1) (Rattus norvegicus, UniProt P22002); assay: FLIPR calcium mobilization assay for L-type calcium channel; assay type: cell-based; conditions: calcium mobilization in vitro assay; HEK293 cells expressing rat LTCC
T2 construct: expressed in transfected cells
Method in brief: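 HEK293 cells stably expressing rat LTCC (α1c, α2δ, β1), Fluo-4 loaded in pH 7.4 buffer with 5 mM CaCl2. Compound (about 846 pM to 17 μM final) applied 5 minutes before depolarization with 90 mM KCl final; FLIPR fluorescence recorded throughout.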

T1 sequence (Q00975 whole entry): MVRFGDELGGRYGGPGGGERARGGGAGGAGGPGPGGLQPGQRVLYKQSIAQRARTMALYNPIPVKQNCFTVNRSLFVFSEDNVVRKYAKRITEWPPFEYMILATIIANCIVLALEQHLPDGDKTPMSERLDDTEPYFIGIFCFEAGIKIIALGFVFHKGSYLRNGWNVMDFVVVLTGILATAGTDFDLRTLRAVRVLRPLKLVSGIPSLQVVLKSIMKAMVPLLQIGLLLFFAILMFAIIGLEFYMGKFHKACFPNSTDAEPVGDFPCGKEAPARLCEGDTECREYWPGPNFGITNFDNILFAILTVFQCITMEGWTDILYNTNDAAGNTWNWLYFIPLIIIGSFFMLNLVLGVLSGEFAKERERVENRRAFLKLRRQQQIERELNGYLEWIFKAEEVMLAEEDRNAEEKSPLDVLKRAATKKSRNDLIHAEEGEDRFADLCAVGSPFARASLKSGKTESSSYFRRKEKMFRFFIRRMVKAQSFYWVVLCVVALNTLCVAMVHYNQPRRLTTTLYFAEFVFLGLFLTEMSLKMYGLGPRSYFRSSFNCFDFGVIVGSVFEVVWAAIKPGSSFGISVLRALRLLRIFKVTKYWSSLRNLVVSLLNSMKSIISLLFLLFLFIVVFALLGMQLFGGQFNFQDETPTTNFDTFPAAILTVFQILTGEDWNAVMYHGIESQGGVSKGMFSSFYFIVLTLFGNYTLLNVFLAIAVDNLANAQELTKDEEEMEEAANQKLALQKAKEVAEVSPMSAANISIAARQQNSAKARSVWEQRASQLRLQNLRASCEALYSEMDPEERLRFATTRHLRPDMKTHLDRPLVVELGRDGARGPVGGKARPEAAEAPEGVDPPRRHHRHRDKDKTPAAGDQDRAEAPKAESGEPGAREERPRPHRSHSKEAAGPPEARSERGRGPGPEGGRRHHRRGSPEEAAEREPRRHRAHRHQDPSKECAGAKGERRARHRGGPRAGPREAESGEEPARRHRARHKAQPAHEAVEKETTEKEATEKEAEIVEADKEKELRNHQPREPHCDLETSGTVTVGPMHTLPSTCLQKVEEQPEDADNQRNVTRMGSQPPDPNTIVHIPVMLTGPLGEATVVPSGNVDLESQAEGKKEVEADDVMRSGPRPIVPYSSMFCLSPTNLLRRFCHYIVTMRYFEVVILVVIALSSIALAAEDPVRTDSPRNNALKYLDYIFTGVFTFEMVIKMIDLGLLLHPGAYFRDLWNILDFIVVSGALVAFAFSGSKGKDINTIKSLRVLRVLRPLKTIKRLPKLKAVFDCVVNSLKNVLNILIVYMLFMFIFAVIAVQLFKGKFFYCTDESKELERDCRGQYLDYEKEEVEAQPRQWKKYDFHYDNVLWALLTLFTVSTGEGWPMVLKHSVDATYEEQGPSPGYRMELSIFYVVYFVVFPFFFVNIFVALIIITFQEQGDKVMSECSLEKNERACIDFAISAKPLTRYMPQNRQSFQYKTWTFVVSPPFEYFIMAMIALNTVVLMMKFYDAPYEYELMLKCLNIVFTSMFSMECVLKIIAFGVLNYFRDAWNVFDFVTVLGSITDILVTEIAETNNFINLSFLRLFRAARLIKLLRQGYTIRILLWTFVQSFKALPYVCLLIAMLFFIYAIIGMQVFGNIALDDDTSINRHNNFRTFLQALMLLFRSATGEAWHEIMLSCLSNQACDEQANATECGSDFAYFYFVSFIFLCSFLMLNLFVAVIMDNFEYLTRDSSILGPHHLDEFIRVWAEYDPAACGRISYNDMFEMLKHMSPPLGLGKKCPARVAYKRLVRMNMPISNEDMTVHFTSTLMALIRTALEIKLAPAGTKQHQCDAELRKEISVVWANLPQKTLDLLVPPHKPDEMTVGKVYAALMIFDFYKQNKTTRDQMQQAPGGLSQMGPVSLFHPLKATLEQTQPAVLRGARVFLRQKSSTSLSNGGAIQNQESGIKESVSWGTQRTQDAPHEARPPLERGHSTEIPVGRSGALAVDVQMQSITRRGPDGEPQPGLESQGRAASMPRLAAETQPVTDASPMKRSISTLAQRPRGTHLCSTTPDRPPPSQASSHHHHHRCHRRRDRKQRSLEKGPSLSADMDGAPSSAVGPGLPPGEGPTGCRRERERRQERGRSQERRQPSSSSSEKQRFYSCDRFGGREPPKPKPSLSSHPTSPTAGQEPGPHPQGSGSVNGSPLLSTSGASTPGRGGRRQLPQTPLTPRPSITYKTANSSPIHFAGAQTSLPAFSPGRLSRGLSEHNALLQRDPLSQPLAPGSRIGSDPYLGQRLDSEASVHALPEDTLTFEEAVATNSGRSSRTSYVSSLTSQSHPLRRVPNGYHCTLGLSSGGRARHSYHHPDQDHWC
T1 sequence (P54289 25-956 partner limits assumed): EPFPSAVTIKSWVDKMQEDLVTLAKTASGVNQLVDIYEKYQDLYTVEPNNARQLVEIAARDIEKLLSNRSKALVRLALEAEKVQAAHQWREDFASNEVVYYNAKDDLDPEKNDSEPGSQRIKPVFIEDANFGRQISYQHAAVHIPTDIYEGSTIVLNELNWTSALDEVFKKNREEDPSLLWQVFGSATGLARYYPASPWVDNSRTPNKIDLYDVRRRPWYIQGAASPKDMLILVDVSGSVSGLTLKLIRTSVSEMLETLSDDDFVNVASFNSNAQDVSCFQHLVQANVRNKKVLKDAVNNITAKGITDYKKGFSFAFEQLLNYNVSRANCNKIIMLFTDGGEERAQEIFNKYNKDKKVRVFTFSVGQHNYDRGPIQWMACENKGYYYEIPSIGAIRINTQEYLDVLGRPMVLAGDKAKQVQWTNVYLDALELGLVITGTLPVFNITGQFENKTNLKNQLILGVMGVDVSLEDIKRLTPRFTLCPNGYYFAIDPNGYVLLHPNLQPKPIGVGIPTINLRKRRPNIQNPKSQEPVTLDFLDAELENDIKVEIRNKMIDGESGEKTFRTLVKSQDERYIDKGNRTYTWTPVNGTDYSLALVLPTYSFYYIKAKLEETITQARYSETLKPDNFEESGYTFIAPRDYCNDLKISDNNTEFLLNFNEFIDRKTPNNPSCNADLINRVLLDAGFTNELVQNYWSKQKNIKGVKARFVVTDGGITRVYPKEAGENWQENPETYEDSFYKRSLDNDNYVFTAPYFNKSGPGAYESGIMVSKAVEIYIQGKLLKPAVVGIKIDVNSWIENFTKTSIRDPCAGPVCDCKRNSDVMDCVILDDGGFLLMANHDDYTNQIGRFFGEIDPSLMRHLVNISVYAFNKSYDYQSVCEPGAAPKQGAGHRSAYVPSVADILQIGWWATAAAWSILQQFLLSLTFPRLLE
T1 sequence (P54289 957-1103 partner limits assumed): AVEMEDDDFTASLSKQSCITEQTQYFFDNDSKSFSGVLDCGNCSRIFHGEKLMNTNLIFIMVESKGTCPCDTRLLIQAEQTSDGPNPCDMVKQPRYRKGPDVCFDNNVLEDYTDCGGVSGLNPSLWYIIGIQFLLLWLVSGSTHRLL
T1 sequence (P54284 whole entry partner): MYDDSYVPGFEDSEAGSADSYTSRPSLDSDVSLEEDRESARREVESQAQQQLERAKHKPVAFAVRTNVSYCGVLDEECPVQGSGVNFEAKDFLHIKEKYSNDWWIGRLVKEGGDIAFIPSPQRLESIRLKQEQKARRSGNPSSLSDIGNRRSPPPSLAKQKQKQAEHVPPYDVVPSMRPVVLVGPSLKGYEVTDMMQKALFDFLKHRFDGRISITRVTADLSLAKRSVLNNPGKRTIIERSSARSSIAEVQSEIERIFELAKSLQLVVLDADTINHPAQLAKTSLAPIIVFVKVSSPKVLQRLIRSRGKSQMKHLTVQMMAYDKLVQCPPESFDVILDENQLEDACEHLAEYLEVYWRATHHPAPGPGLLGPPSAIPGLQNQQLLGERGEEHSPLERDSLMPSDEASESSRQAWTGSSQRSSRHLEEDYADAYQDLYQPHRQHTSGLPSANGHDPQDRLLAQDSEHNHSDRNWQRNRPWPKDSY

Structure (SMILES)	IC50 [1]	IC50 [2]
O=C(CN1CCC(N(C2CC2)S(=O)(=O)c2cccc(C(F)(F)F)c2)CC1)NCc1cc(C(F)(F)F)cc(C(F)(F)F)c1 [Compound 64, N-(3,5-Bis-trifluoromethylbenzyl)-2-{4-[cyclopropyl-(3-trifluoromethylbenzenesulfonyl)amino]-piperidin-1-yl}-acetamide]	220 nM	> 20000 nM
CCOC(=O)c1ccc(NC(=O)CN2CCC(N(C3CC3)S(=O)(=O)c3cccc(C(F)(F)F)c3)CC2)cc1 [Compound 54, 4-(2-{4-[Cyclopropyl-(3-trifluoromethylbenzenesulfonyl)amino]-piperidin-1-yl}-acetylamino)benzoic acid ethyl ester]	540 nM	> 20000 nM
CC(C)N(C1CCN(C(=O)CNCc2ccccc2)CC1)S(=O)(=O)c1cccc(C(F)(F)F)c1 [Compound 93, N-[1-(2-Benzylaminoacetyl)-piperidin-4-yl]-N-isopropyl-3-trifluoromethylbenzenesulfonamide]	560 nM	10000 to 20000 nM
O=C(CN1CCC(N(C2CC2)S(=O)(=O)c2cccc(C(F)(F)F)c2)CC1)Nc1ccc(C(F)(F)F)cc1 [Compound 55, 2-{4-[Cyclopropyl-(3-trifluoromethylbenzenesulfonyl)amino]-piperidin-1-yl}-N-(4-trifluoromethylphenyl)acetamide]	720 nM	> 20000 nM
O=C(CN1CCC(N(C2CC2)S(=O)(=O)c2cccc(C(F)(F)F)c2)CC1)Nc1cncc(F)c1 [Compound 78, 2-{4-[Cyclopropyl-(3-trifluoromethylbenzenesulfonyl)amino]-piperidin-1-yl}-N-(5-fluoro-pyridin-3-yl)-acetamide]	610 nM	> 20000 nM
CC(C)N(C1CCN(C(=O)CCNc2ccccc2OC(F)(F)F)CC1)S(=O)(=O)c1cccc(C(F)(F)F)c1 [N-isopropyl-N-{1-[3-(2-trifluoromethoxy-phenylamino)-propionyl]-piperidin-4-yl}-3-trifluoromethyl-benzenesulfonamide]	330 nM	> 20000 nM
CC(C)N(C1CCN(C(=O)CCNc2cccc(OC(F)(F)F)c2)CC1)S(=O)(=O)c1cccc(C(F)(F)F)c1 [N-isopropyl-N-{1-[3-(3-trifluoromethoxy-phenylamino)-propionyl]-piperidin-4-yl}-3-trifluoromethyl-benzenesulfonamide]	770 nM	> 20000 nM
COc1ccc(CNCC(=O)N2CCC(N(C(C)C)S(=O)(=O)c3cccc(C(F)(F)F)c3)CC2)cc1 [Compound 94, N-Isopropyl-N-{1-[2-(4-methoxy-benzylamino)acetyl]-piperidin-4-yl}-3-trifluoromethylbenzenesulfonamide]	700 nM	10000 to 20000 nM
CC(C)N(C1CCN(CCC(=O)Nc2ccc(F)cc2)CC1)S(=O)(=O)c1cccc(C(F)(F)F)c1 [Compound 107a, N-(4-Fluorophenyl)-3-{4-[isopropyl-(3-trifluoromethylbenzenesulfonyl)amino]-piperidin-1-yl}-propionamide]	570 nM	9750 nM
Cc1cccc(NC(=O)CN2CCC(N(C(C)C)S(=O)(=O)c3cccc(C(F)(F)F)c3)CC2)c1 [Compound 42d, 2-{4-[Isopropyl-(3-trifluoromethylbenzenesulfonyl)amino]-piperidin-1-yl}-N-m-tolyl-acetamide]	450 nM	> 20000 nM
